Article PMC9537572, “Elucidation of the binding mechanism of astragaloside IV derivative with human serum albumin and its cardiotoxicity in zebrafish embryos” (Frontiers in Pharmacology, 2022)
“And” between values parts separate entries of the source, which are not always exact repeats. Identical values can stand only once. “Also recorded” adds a separate entry of the source.

What was measured:
HSA = HSA (Homo sapiens, UniProt P02768); experiment: Plasma protein binding rate by equilibrium dialysis and UHPLC-MS/MS; type: in vitro ADME
Chain of HSA (P02768 25-609): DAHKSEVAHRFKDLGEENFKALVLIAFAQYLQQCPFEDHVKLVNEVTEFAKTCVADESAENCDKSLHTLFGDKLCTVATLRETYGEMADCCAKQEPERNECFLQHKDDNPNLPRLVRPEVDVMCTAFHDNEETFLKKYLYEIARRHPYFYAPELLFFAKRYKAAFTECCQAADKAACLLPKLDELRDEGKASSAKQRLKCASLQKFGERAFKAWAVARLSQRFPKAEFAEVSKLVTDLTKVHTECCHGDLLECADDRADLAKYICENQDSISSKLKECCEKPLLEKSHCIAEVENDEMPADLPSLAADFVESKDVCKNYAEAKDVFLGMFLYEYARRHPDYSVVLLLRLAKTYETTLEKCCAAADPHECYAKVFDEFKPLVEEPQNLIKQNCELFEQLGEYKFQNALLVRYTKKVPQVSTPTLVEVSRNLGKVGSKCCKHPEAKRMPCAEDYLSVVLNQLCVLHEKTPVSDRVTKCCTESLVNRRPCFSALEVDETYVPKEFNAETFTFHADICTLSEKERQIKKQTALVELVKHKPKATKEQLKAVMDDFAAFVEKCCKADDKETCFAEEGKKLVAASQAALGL
Method: The binding rate of AGS IV/LS-102 and HSA was determined using a slightly modified equilibrium dialysis method ([Metsu et al., 2020]). […] The stock solutions of HSA (0.5 ml) and drug group (0.5 ml) were placed in a dialysis membrane bag that was ligated at both ends and then immersed in a test tube filled with 50 ml of PBS solution for 72 h at 4 °C. After equilibrium, a 0.5-ml solution of outer dialysate and internal dialysate was collected into a 2-ml EP tube, and 10 µL IS (digoxin, 0.1 mg/ml) solution was added to each tube. Both samples were added to 1.5 ml of acetonitrile and vortexed for 3 min, and then the samples were separated via centrifugation at 18,000 × g for 20 min. The supernatants were transferred to another EP tube and dried under a nitrogen stream. The residue was redissolved in 1 ml methanol, sonicated for 2 min, vortexed for 3 min, and centrifuged at 18,000 × g for 10 min. The supernatant was filtered with a 0.22 µm microporous syringe filter in a 2 ml sample vial, and 1 µL was injected into the UHPLC-MS/MS system for analysis. The plasma protein binding rate was calculated according to the following formula ([Talbert et al., 2002]): Plasma binding rate=Internal drug concentration−External drug concentration/Initial drug concentration ×100%

zebrafish embryos [1] = experiment: Maximum tolerated concentration of LS-102 in zebrafish; type: in vivo; settings: for Mortality: 3 dpf zebrafish, n=30; for Deaths: of 30 zebrafish
Method: Zebrafish embryos at 3 dpf were randomly selected and treated with LS-102 at concentrations of 1, 10, 100, 250 and 500 μg/ml in water, while the control group was left untreated. The mortality of zebrafish was recorded for each experimental group after 24 h of treatment.

zebrafish embryos [2] = experiment: Astemizole-induced cardiotoxicity in zebrafish embryos: heart rate and SV-BA spacing; type: in vivo; settings: 4 µM astemizole; for Heart rate (beats/min) (Mean±SE) / SV-BA spacing (µm) (Mean±SE): n = 10
Method: A total of 270 wild-type AB zebrafish at 3 dpf were randomly selected, and 30 zebrafish were plated in each well of a six-well plates. The concentrations of LS-102 were 27.8, 83.3 and 250 µg/ml, AGS IV was 250 µg/mL. A normal control group (fish culture water) and a 4 µM astemizole model control group were also established. Ten zebrafish were randomly selected from each group, and the heart rate and venous sinus-to-arterial bulb distance (SV-BA) of zebrafish were observed under a dissecting microscope after 2 h, 6 h and 24 h of LS-102 and AGS IV treatment. Images were collected by photographing, and the ameliorative effect of LS-102 and AGS IV on astemizole-induced cardiotoxicity in zebrafish was evaluated by the statistical significance of the heart rate and the SV-BA interval index.

zebrafish embryos [3] = experiment: Astemizole-induced toxicity in zebrafish heart development; type: in vivo; settings: for Mortality: cotreated with 4 µM astemizole 48 h from 2 hpf
Method: A total of 270 wild-type AB zebrafish at 2 h post-fertilization (2 hpf) were randomly selected, and 30 zebrafish were plated in each well of a six-well plates. The concentrations of LS-102 were 27.8, 83.3 and 250 µg/ml, while that of AGS IV was 250 µg/mL. A normal control group (fish culture water) and a 4 µM astemizole model control group were also established. After LS-102 and AGS IV were cotreated with astemizole for 48 h, zebrafish heart development was observed and photographed under a microscope to evaluate the ameliorative effect of LS-102 and AGS IV on astemizole-induced toxicity in zebrafish heart development.

zebrafish = experiment: Arachidonic acid-induced thrombosis in zebrafish; type: in vivo; settings: for Staining intensity of cardiac red blood cells (pixels) (mean ± se): 3 h pretreatment, arachidonic acid 1.5 h, n = 10; for Antithrombotic effect (%): vs. model group, arachidonic acid-induced thrombosis
Method: A total of 270 melanin allele mutant translucent albino strain zebrafish at 3 dpf were randomly selected, with 30 zebrafish per well in six-well plates. The concentrations of LS-102 were 6.25, 12.5, 25, 50, and 100 µg/ml, while that of AGS IV was 100 µg/ml, and the positive control drug aspirin was 25 µg/ml. After treatment with LS-102 and AGS IV for 3 h, arachidonic acid aqueous solution was administered for 1.5 h to induce a thrombosis model in zebrafish in all experimental groups except the normal group. After staining with o-anisidine, zebrafish were randomly selected from each experimental group and observed under a dissecting microscope and photographed. Data were collected to qualitatively evaluate thrombosis in zebrafish, and the intensity of cardiac erythrocyte staining (length of venous thrombus vs. number of cardiac erythrocytes) in zebrafish was analyzed and counted to establish, the preventive effect of LS-102 and AGS IV with aspirin on thrombosis in zebrafish. The formula was calculated as follows:
Thromboprophylactic effect (%) = S (drug administration group)−S (model group)/S (nomal control group)−S (model group)×100%

mice = settings: even at high treatment doses, ref Qing et al., 2019, Sun et al.; cited from earlier work
[4] = 83.3 µg/mL, 4 µM astemizole, 48 h, n=30

Structure (SMILES): CC(C)(O)C1CCC(C)(C2C(O)CC3(C)C4CC(OC5OC(C(=O)O)C(O)C(O)C5O)C5C(C)(C)C(OC6OCC(O)C(O)C6O)CCC56CC46CCC23C)O1 (centres unmarked) [LS-102, astragalosidic acid]
- Plasma protein binding rate, range over the concentrations (HSA; across the three concentrations (0.238-0.714 mg/ml)): 68.24%–69.35
- fraction unbound at 72 h (HSA; human, plasma, across the three concentrations (0.238-0.714 mg/ml), read-out: Plasma protein binding rate, range over the concentrations): 0.306 to 0.331
- fraction unbound at 72 h, 0.238 mg/ml (HSA; human, drug 0.238 mg/ml, equilibrium dialysis 72 h at 4 °C, n = 3, read-out: Protein binding rate (%, Mean±SD) (converted)): 0.318
- fraction unbound at 72 h, 0.476 mg/ml (HSA; human, drug 0.476 mg/ml, equilibrium dialysis 72 h at 4 °C, n = 3, read-out: Protein binding rate (%, Mean±SD) (converted)): 0.306
- fraction unbound at 72 h, 0.714 mg/ml (HSA; human, drug 0.714 mg/ml, equilibrium dialysis 72 h at 4 °C, n = 3, read-out: Protein binding rate (%, Mean±SD) (converted)): 0.314
- Mortality (zebrafish embryos [1]; 1 µg/mL, 24 h): 0%
- Deaths (zebrafish embryos [1]; 1 µg/mL, 24 h): 0 tails
- Mortality (zebrafish embryos [1]; 10 µg/mL, 24 h): 0%
- Deaths (zebrafish embryos [1]; 10 µg/mL, 24 h): 0 tails
- Mortality (zebrafish embryos [1]; 100 µg/mL, 24 h): 0%
- Deaths (zebrafish embryos [1]; 100 µg/mL, 24 h): 0 tails
- Mortality (zebrafish embryos [1]; 250 µg/mL, 24 h): 13.3%
- Deaths (zebrafish embryos [1]; 250 µg/mL, 24 h): 4 tails
- Mortality (zebrafish embryos [1]; 500 µg/mL, 24 h): 100%
- Deaths (zebrafish embryos [1]; 500 µg/mL, 24 h): 30 tails
- Mortality (in words) (zebrafish embryos [1]; concentrations ranging from 1 to 100 µg/ml, 24 h): no mortality
- Maximum-tolerated concentration (MTC) (zebrafish embryos [1]; zebrafish 3 dpf, 24 h treatment): 100 µg/mL
- Heart rate (beats/min) (Mean±SE) (zebrafish embryos [2]; 27.8 µg/ml, 2 h): 156 ± 1 beats/min
- SV-BA spacing (µm) (Mean±SE) (zebrafish embryos [2]; 27.8 µg/ml, 2 h): 179 ± 7 µm
- Heart rate (beats/min) (Mean±SE) (zebrafish embryos [2]; 27.8 µg/ml, 6 h): 158 ± 1 beats/min
- SV-BA spacing (µm) (Mean±SE) (zebrafish embryos [2]; 27.8 µg/ml, 6 h): 204 ± 6 µm
- Heart rate (beats/min) (Mean±SE) (zebrafish embryos [2]; 27.8 µg/ml, 24 h): 45 ± 23 beats/min
- SV-BA spacing (µm) (Mean±SE) (zebrafish embryos [2]; 27.8 µg/ml, 24 h): 250 ± 6 µm
- Heart rate (beats/min) (Mean±SE) (zebrafish embryos [2]; 83.3 µg/ml, 2 h): 157 ± 2 beats/min
- SV-BA spacing (µm) (Mean±SE) (zebrafish embryos [2]; 83.3 µg/ml, 2 h): 157 ± 3 µm
- Heart rate (beats/min) (Mean±SE) (zebrafish embryos [2]; 83.3 µg/ml, 6 h): 153 ± 1 beats/min
- SV-BA spacing (µm) (Mean±SE) (zebrafish embryos [2]; 83.3 µg/ml, 6 h): 168 ± 4 µm
- Heart rate (beats/min) (Mean±SE) (zebrafish embryos [2]; 83.3 µg/ml, 24 h): 128 ± 21 beats/min
- SV-BA spacing (µm) (Mean±SE) (zebrafish embryos [2]; 83.3 µg/ml, 24 h): 228 ± 7 µm
- Heart rate (beats/min) (Mean±SE) (zebrafish embryos [2]; 250 µg/ml, 2 h): 160 ± 1 beats/min
- SV-BA spacing (µm) (Mean±SE) (zebrafish embryos [2]; 250 µg/ml, 2 h): 151 ± 3 µm
- Heart rate (beats/min) (Mean±SE) (zebrafish embryos [2]; 250 µg/ml, 6 h): 167 ± 1 beats/min
- SV-BA spacing (µm) (Mean±SE) (zebrafish embryos [2]; 250 µg/ml, 6 h): 158 ± 6 µm
- Heart rate (beats/min) (Mean±SE) (zebrafish embryos [2]; 250 µg/ml, 24 h): 162 ± 7 beats/min
- SV-BA spacing (µm) (Mean±SE) (zebrafish embryos [2]; 250 µg/ml, 24 h): 174 ± 9 µm
- Effect on astemizole-induced heart rate slowing and SV-BA spacing increase (in words) (zebrafish embryos [2]; 2 h and 6 h, 27.8, 83.3 and 250 µg/ml): improved the slowed heart rate and increased the SV-BA spacing
- Effect on astemizole-induced heart rate slowing and SV-BA spacing increase (in words) (zebrafish embryos [2]; 24 h): improved the slowed heart rate at 250 µg/ml and the increase in SV-BA spacing at 83.3 and 250 µg/ml
- Mortality (zebrafish embryos [3]; 27.8 µg/mL, n=30): 0%
- Phenotype: absence of blood flow (share of zebrafish) (zebrafish embryos [3]; [4]): 26.7%
- Phenotype: pericardial oedema, venous sinus stasis (share of zebrafish) (zebrafish embryos [3]; [4]): 83.3%
- Phenotype: slowed blood flow (share of zebrafish) (zebrafish embryos [3]; [4]): 56.7%
- Mortality (zebrafish embryos [3]; 83.3 µg/mL, n=30): 0%
- Phenotype (in words) (zebrafish embryos [3]; 250 µg/mL, 4 µM astemizole, 48 h, n=30): no significant toxicity; also recorded: No abnormalities seen
- Mortality (zebrafish embryos [3]; 250 µg/mL, n=30): 30%
- Effect on the developmental toxicity of zebrafish hearts induced by astemizole (in words) (zebrafish embryos [3]; 83.3 and 250 µg/ml, 4 µM astemizole, 48 h): ameliorating effect
- Staining intensity of cardiac red blood cells (pixels) (mean ± se) (zebrafish; 6.25 µg/ml): 1280 pixels and 1280 ± 119 pixels
- Antithrombotic effect (%) (zebrafish; 6.25 µg/ml): −13%
- Staining intensity of cardiac red blood cells (pixels) (mean ± se) (zebrafish; 12.5 µg/ml): 1521 pixels and 1521 ± 72 pixels
- Antithrombotic effect (%) (zebrafish; 12.5 µg/ml): 14%
- Staining intensity of cardiac red blood cells (pixels) (mean ± se) (zebrafish; 25 µg/ml): 1597 pixels and 1597 ± 65 pixels
- Antithrombotic effect (%) (zebrafish; 25 µg/ml): 22%
- Staining intensity of cardiac red blood cells (pixels) (mean ± se) (zebrafish; 50 µg/ml): 1796 pixels and 1796 ± 54 pixels
- Antithrombotic effect (%) (zebrafish; 50 µg/ml): 44%
- Staining intensity of cardiac red blood cells (pixels) (mean ± se) (zebrafish; 100 µg/ml): 1950 pixels and 1950 ± 33 pixels
- Antithrombotic effect (%) (zebrafish; 100 µg/ml): 61%
- Abnormalities or death in mice (in words) (mice): no abnormalities or death
